Entries after “also recorded” stand apart in the source; their conditions may differ. Where two headings read alike, the source gives them in different places.
Key:
Jurkat cells [1] = assay: G2 checkpoint abrogation in bleomycin-treated Jurkat cells (flow cytometry of DNA content); assay type: cell-based, human; details: for abrogation of bleomycin-induced accumulation of G2/M cells (% G2/M): bleomycin 40 μg/ml plus compound 0.2-50 μg/ml
Experimental: (§1) Cell culture. A human T-cell leukemia-derived cell line, Jurkat, was cultured in RPMI 1640 media (Sigma) supplemented with 10% fetal calf serum (IBL: Immuno-Biological Laboratories, Gunma, Japan) at 37° C./5% CO2. A human colon cancer-derived cell line, HCT116, was cultured in McCoy's 5A Medium Modified (Gibco BRL) and supplemented with 10% fetal calf serum at 37° C./5% CO2. Normal human peripheral blood lymphocytes were separated by Ficoll-Paque® (Pharmacia) and cultured in the presence of 0.1 μg/ml PHA and 1 μg/ml IL-2.
(§2) Cell-cycle analysis. […] Briefly, two million cells were resuspended and incubated in 300 μl Krishan's solution (0.1% Sodium citrate, 50 μg/ml PI, 20 μg/ml RNase A and 0.5% NP-40) for 1 hr at 4° C. and analyzed by flow cytometry using a FACScan™ flow cytometer (Beckton Dickinson, Mountain View, Calif.) with the CELLQuest™ program (Beckton Dickinson).
DNA of treated Jurkat cells was stained with propidium iodine, and the cell cycle status of each cell was assessed by flow cytometry.
CBDC compounds 004, 402, 403, 404, 405, 406, 407, 408, 409, 410, and 411 were tested. Cells were harvested, DNA was stained with propidium iodine, and the percentage of cells in G2/M phase (% G2/M) was determined by flow cytometry.
Activated normal T cells and leukemic T cells (Jurkat cells) were treated with agents to induce accumulation of cells at G2 or M phase, and the effect of CBDC402 on progression of cells through cell cycle checkpoints was measured. After treatments, cells were harvested, DNA was stained, and the cell cycle stage for each cell was determined by flow cytometry as described above. […] In another experiment, activated normal T cells received no treatment (control) or were treated with colchicine or a combination of […] and colchicine.

[2] = tested on: HCT116 human colon carcinoma cells; assay: G2 checkpoint induced by various anti-cancer agents in HCT116 cells (flow cytometry); assay type: cell-based; details: co-incubation with CBDC004 2, 10 or 50 μM, 24 hrs
Experimental: as §1, §2
DNA was stained with propidium iodine, and the cell cycle status of each cell was assessed by flow cytometry.

Jurkat cells [3] = assay: M phase checkpoint in colchicine-treated Jurkat cells (flow cytometry); assay type: cell-based, human; details: 24 hrs
Experimental: as §1, §2
Jurkat cells were treated with colchicine (5 ug/ml), and colchicine plus the compound CBDC402 in various concentrations (0.2, 0.39, 0.78, 1.56, 3.125, 6.25, 12.5, 25 and 50 ug/ml) for 24 hrs. DNA of treated Jurkat cells was stained with propidium iodine, and the cell cycle status of each cell was assessed by flow cytometry.

[4] = tested on: HCT-116 human colon carcinoma cells; assay: Xenograft tumor growth in SCID mice; assay type: in vivo; details: HCT-116 xenograft, intraperitoneal
Experimental: Treatment was initiated when the primary tumors reached the size of 0.1 cm^3 (7 or 8 mm, designated as Day 1).
Anti-cancer agent CPT-11 (CAMPTOSAR®, Irinotecan, a topoisomerase inhibitor) and CBDC402 were administered by intraperitoneal injection in the following treatment regimens: […] at 20 mg/kg once a week; CBDC402 at 20 mg/kg twice a week; CBDC402 at 40 mg/kg twice a week; CBDC402 at 20 mg/kg twice and week plus CPT-11 at 20 mg/kg once a week; and CBDC402 at 40 mg/kg twice a week plus CPT-11 at 20 mg/kg once a week. DMSO was administered as a control treatment. Tumor sizes were measured using calipers three times a week, and the volume was calculated using the formula; […]=[width (mm)^2×length (mm)]/2. Mean tumor sizes for each treatment group (n=4) were plotted against the days of treatment.

MK-45 cells = assay: Colony formation analysis of MK-45 cells; assay type: cell-based, human; details: 14 days culture; for colony formation, combination with CPT-11: 10 μM CBDC compound plus 10 μg/ml CPT-11, 3 hours; for colony formation, CBDC compound alone: 10 μM, 3-hour treatment
Experimental: MK-45 cells from a human gastric cancer derived cell line, were seeded in 6-well plates at 1000 cells/well. After the overnight culture, the cells were treated 10 μM of various CBDC compounds, 10 μg/ml CPT-11, or a combination of CBDC compounds and CPT-11 for three (3) hours. The CBDC compounds tested were: CBDC402, CBDC412, CBDC413, and CBDC418. The culture medium was changed and cells were cultured for 14 days, after which the colonies were fixed with methanol and stained with 0.1% crystal violet.

Activated normal T cells [5] = assay: G2 checkpoint in bleomycin-treated activated normal T cells (flow cytometry); assay type: cell-based, human
Experimental: as §1, §2
(§3) Activated normal T cells and leukemic T cells (Jurkat cells) were treated with agents to induce accumulation of cells at G2 or M phase, and the effect of CBDC402 on progression of cells through cell cycle checkpoints was measured. After treatments, cells were harvested, DNA was stained, and the cell cycle stage for each cell was determined by flow cytometry as described above. […]

Activated normal T cells [6] = assay: M phase checkpoint in colchicine-treated activated normal T cells (flow cytometry); assay type: cell-based, human; details: FIG. 10c
Experimental: as §1, §2, §3

HCT116 cells = tested on: HCT116 cells
Experimental: The subG1 population was determined by staining HCT116 with Krishan's solution and analyzed by flow cytometer. The dead cells were identified on the basis of DNA content, and the percentage of cells in sub G1 (% subG1) was calculated.

COc1ccc(OC(=O)c2ccc(Cl)cc2)cc1 [CBDC004, 4-Chloro-benzoic acid 4-methoxy-phenyl ester]
abrogation of bleomycin-induced accumulation of G2/M cells (% G2/M) (Jurkat cells [1]; Jurkat cells, 24 hrs): abrogated the G2 cell cycle checkpoint in bleomycin-treated Jurkat cells in a dose-dependent manner
effect on G2/M accumulation induced by bleomycin, adriamycin, camptothecin or cisplatin [2]: reduced the number of cells at G2/M

Cc1ccc(OC(=O)c2ccc(Br)cc2)cc1 [CBDC402, 4-Bromo-benzoic acid p-tolyl ester]
abrogation of bleomycin-induced accumulation of G2/M cells (% G2/M) (Jurkat cells [1]; Jurkat cells, 24 hrs): abolished the bleomycin-induced accumulation of G2/M cells in a dose-dependent manner; also recorded: abrogated the G2 cell cycle checkpoint in bleomycin-treated Jurkat cells in a dose-dependent manner
relative G2 checkpoint abrogating activity among CBDC compounds tested (dose-response curve) (Jurkat cells [1]; Jurkat cells, bleomycin 40 ug/ml, 24 hrs, FIG. 3): showed the highest activity
effect on bleomycin-induced increase of cells at G2 phase (Jurkat cells [1]; leukemic T cells (Jurkat cells), combination of bleomycin and CBDC402, FIG. 10b): abolished the large bleomycin-induced increase of leukemic T cells (Jurkat cells) at G2 phase
abrogation of colchicine-induced G2/M accumulation (Jurkat cells [3]; colchicine 5 ug/ml plus compound 0.2-50 ug/ml): did not abrogate this G2/M accumulation at any CBDC402 concentration
tumor growth, CBDC402 alone ([4]; 20 or 40 mg/kg twice a week (both concentrations)): gave a slight reduction in tumor growth
tumor growth, combination with CPT-11 ([4]; CBDC402 20 or 40 mg/kg twice a week plus CPT-11 20 mg/kg once a week): significantly reduced or inhibited tumor growth
colony formation, combination with CPT-11 (MK-45 cells): almost complete suppression of colony formation
colony formation, CBDC compound alone (MK-45 cells): significant suppression of colony formation
effect on bleomycin-induced increase of cells at G2 phase (Activated normal T cells [5]; combination of bleomycin and CBDC402, FIG. 10a): abolished the bleomycin-induced increase of activated normal T cells at G2 phase
effect on colchicine-induced increase of cells at M phase (Activated normal T cells [6]; combination with colchicine): did not affect the colchicine-induced increase of activated normal T cells at M phase

Cc1ccc(OC(=O)c2cc(F)c(F)c(F)c2)cc1 [CBDC403, 3,4,5-Trifluoro-benzoic acid p-toly 1 ester]
abrogation of bleomycin-induced accumulation of G2/M cells (% G2/M) (Jurkat cells [1]; Jurkat cells, 24 hrs): abrogated the G2 cell cycle checkpoint in bleomycin-treated Jurkat cells in a dose-dependent manner

CC.O=C(Oc1ccc(Br)cc1)c1ccc(F)cc1 [CBDC404, 4-Fluoro-benzoic acid 4-bromo-pheny 1 ester; compound with ethane]
abrogation of bleomycin-induced accumulation of G2/M cells (% G2/M) (Jurkat cells [1]; Jurkat cells, 24 hrs): abrogated the G2 cell cycle checkpoint in bleomycin-treated Jurkat cells in a dose-dependent manner

CC.Cc1ccc(OC(=O)c2ccc(Cl)c(Cl)c2)cc1 [CBDC405, 3,4-Dichloro-benzoic acid p-tolyl ester; compound with ethane]
abrogation of bleomycin-induced accumulation of G2/M cells (% G2/M) (Jurkat cells [1]; Jurkat cells, 24 hrs): abrogated the G2 cell cycle checkpoint in bleomycin-treated Jurkat cells in a dose-dependent manner

CC.Cc1ccc(OC(=O)c2ccc(Cl)cc2Cl)cc1 [CBDC406, 2,4-Dichloro-benzoic acid p-tolyl ester; compound with ethane]
abrogation of bleomycin-induced accumulation of G2/M cells (% G2/M) (Jurkat cells [1]; Jurkat cells, 24 hrs): abrogated the G2 cell cycle checkpoint in bleomycin-treated Jurkat cells in a dose-dependent manner

CC.Cc1ccc(OC(=O)c2ccc(F)cc2)cc1 [CBDC407, 4-Fluoro-benzoic acid p-tolyl ester; compound with ethane]
abrogation of bleomycin-induced accumulation of G2/M cells (% G2/M) (Jurkat cells [1]; Jurkat cells, 24 hrs): abrogated the G2 cell cycle checkpoint in bleomycin-treated Jurkat cells in a dose-dependent manner

CC.Cc1ccc(OC(=O)c2c(F)c(F)c(F)c(F)c2F)cc1 [CBDC408, 2,3,4,5,6-Pentafluoro-benzoic acid p-tolyl ester; compound with ethane]
abrogation of bleomycin-induced accumulation of G2/M cells (% G2/M) (Jurkat cells [1]; Jurkat cells, 24 hrs): abrogated the G2 cell cycle checkpoint in bleomycin-treated Jurkat cells in a dose-dependent manner

CC.Cc1ccc(OC(=O)c2ccc(Cl)cc2)cc1C [CBDC409, 4-Chloro-benzoic acid 3,4-dimethyl-phenyl ester; compound with ethane]
abrogation of bleomycin-induced accumulation of G2/M cells (% G2/M) (Jurkat cells [1]; Jurkat cells, 24 hrs): abrogated the G2 cell cycle checkpoint in bleomycin-treated Jurkat cells in a dose-dependent manner

CC.O=C(Oc1ccc(O)cc1)c1ccc(Cl)cc1 [CBDC410, 4-Chloro-benzoic acid 4-hydroxy-phenyl ester; compound with ethane]
abrogation of bleomycin-induced accumulation of G2/M cells (% G2/M) (Jurkat cells [1]; Jurkat cells, 24 hrs): abrogated the G2 cell cycle checkpoint in bleomycin-treated Jurkat cells in a dose-dependent manner

CC.O=C(Oc1ccc(O)cc1)c1ccc(F)cc1 [CBDC411, 4-Fluoro-benzoic acid 4-hydroxy-phenyl ester; compound with ethane]
abrogation of bleomycin-induced accumulation of G2/M cells (% G2/M) (Jurkat cells [1]; Jurkat cells, 24 hrs): abrogated the G2 cell cycle checkpoint in bleomycin-treated Jurkat cells in a dose-dependent manner

O=C(Oc1ccc(F)cc1)c1ccc(Br)cc1 [CBDC412, 4-Bromo-benzoic acid 4-fluoro-phenyl ester]
colony formation, combination with CPT-11 (MK-45 cells): a slight suppression of colony formation above that seen with CPT-11 alone
colony formation, CBDC compound alone (MK-45 cells): a slight suppression of colony formation

O=C(Oc1ccc(C(F)(F)F)cc1)c1ccc(Br)cc1 [CBDC413, 4-Bromo-benzoic acid 4-trifluoromethyl-phenyl ester]
colony formation, CBDC compound alone (MK-45 cells): did not have an appreciable effect on colony formation

Cc1ccc(OC(=O)c2ccc(Br)cc2)cn1 [CBDC418, 4-Bromo-benzoic acid 6-methyl-pyridin-3-yl ester]
colony formation, CBDC compound alone (MK-45 cells): did not have an appreciable effect on colony formation

CCc1c2c(nc3ccc(OC(=O)N4CCC(N5CCCCC5)CC4)cc13)-c1cc3c(c(=O)n1C2)COC(=O)[C@]3(O)CC [CPT-11, Irinotecan, reference compound]
tumor growth, CPT-11 alone ([4]; 20 mg/kg once a week): reduced tumor growth
colony formation, CPT-11 alone (MK-45 cells; 10 μg/ml, 3 hours): significant suppression of colony formation

COc1cccc2c1C(=O)c1c(O)c3c(c(O)c1C2=O)C[C@@](O)(C(=O)CO)C[C@@H]3O[C@H]1C[C@H](N)[C@H](O)[C@H](C)O1 [adriamycine, adriamycin]
cytotoxic effect (% subG1) of anti-cancer agent alone (HCT116 cells): had a cytotoxic effect on HCT116 cells

CC[C@@]1(O)C(=O)OCc2c1cc1n(c2=O)Cc2cc3ccccc3nc2-1 [canptothecine, camptothecin]
cytotoxic effect (% subG1) of anti-cancer agent alone (HCT116 cells; HCT116 cells, without CBDC004): had a cytotoxic effect on HCT116 cells

COc1cc2c(c(OC)c1OC)-c1ccc(OC)c(=O)cc1[C@@H](NC(C)=O)CC2 [colchicine, reference compound]
accumulation of cells in G2/M phase by agent alone (Jurkat cells [3]; colchicine 5 ug/ml): induced an accumulation of cells in G2/M phase cells
accumulation of cells in M phase by colchicine alone (Activated normal T cells [6]): caused an accumulation of cells in M phase

bleomycin [reference compound]
accumulation of cells in G2/M phase by agent alone (Jurkat cells [1]; Jurkat cells, bleomycin 40 μg/ml, 24 hrs): induced an accumulation of cells in cell cycle G2/M phase
accumulation of cells at G2 phase by bleomycin alone (Jurkat cells [1]; leukemic T cells (Jurkat cells), FIG. 10b): caused accumulation of a major population of cells at G2 phase
accumulation of cells at G2 phase by bleomycin alone (Activated normal T cells [5]; FIG. 10a): caused accumulation of a minor population of cells at G2 phase

— US7629364B2, “Compounds that abrogate DNA-damage-induced cell cycle G2 checkpoint and/or augment anti-cancer activity of DNA-damaging treatments” (Canbas Co., Ltd., priority 2002, dated 2009)
